Measurements published in PubChem BioAssay (NCI).
Values joined by “and” are separate entries in the source; they are usually repeats but may differ in a detail not shown here. Equal values may be shown once.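 Cultured in 96-well plates, cells were exposed to test compound for 48 hours across five concentrations. GI50 marks 50% less growth. TGI: total growth inhibition.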

Assays:
Assay in all cases: NCI-60 cell line screen, 48 h
LOX IMVI melanoma = tested on: LOX IMVI melanoma
SNB-75 CNS = tested on: SNB-75 CNS
HOP-62 NSCLC = tested on: HOP-62 NSCLC
LXFL 529 NSCLC = tested on: LXFL 529 NSCLC
CAKI-1 renal = tested on: CAKI-1 renal
ACHN renal = tested on: ACHN renal
HCT-15 colon = tested on: HCT-15 colon
NCI-H460 lung = tested on: NCI-H460 lung
MDA-N = tested on: MDA-N
MDA-MB-231 breast = tested on: MDA-MB-231 breast

Compound | TGI (LOX IMVI melanoma) [µM] | TGI (SNB-75 CNS) [µM] | TGI (HOP-62 NSCLC) [µM] | TGI (LXFL 529 NSCLC) [µM] | TGI (CAKI-1 renal) [µM] | TGI (ACHN renal) [µM] | TGI (HCT-15 colon) [µM] | TGI (NCI-H460 lung) [µM] | GI50 (LOX IMVI melanoma) [µM] | GI50 (HOP-62 NSCLC) | GI50 (MDA-N) [µM] | TGI (MDA-N) [µM] | TGI (MDA-MB-231 breast) [µM] | GI50 (CAKI-1 renal) [µM] | GI50 (ACHN renal) [µM] | GI50 (HCT-15 colon) [µM] | GI50 (NCI-H460 lung) [µM] | GI50 (SNB-75 CNS) [µM] | GI50 (LXFL 529 NSCLC) [µM]
Cc1cc(C)c(S(=O)(=O)ONC(=O)OC(C)(C)C)c(C)c1 | > 100 | > 100 | > 100 | > 100 | > 100 | > 100 | > 100 | > 100 |  |  |  |  |  |  |  |  |  |  | 
Nc1nc(N)c2nc(CNc3ccc(C(=O)NC(CCCNC(=O)c4ccccc4C(=O)O)C(=O)O)cc3)cnc2n1 (configuration not stated) | > 100 | > 100 | > 100 | > 100 | > 100 | > 100 | > 100 | > 100 | 0.000373 | < 0.02 µM and 0.00449 µM and < 0.0546 µM | 0.00127 | > 100 | > 100 | 0.00224 | 0.00181 | 0.00105 | 0.00045 |  | 
CCC[CH2][Sn]([CH2]CCC)([O]C(=O)C1CCC(=O)N1)[O]C(=O)C1CCC(=O)N1 (configuration not stated) | 0.328 | 0.752 | 2.04 | 0.188 | 0.356 | 0.512 | 0.353 | 2.53 | 0.152 | 0.619 µM |  |  |  | 0.0757 | 0.22 | 0.182 | 1.27 | 0.221 | 0.0498
COC(OC)[C@@H](C)[C@H](O)[C@](C)(O)C1OC(C)(C)OC(C(C)C=C(C)C)C1C (some centres not stated) | > 100 | > 100 | > 100 | > 100 | > 100 | > 100 | > 100 | > 100 |  |  |  |  |  |  |  |  |  |  | 
OC(c1ccccn1)C1CNc2ccccc21 (configuration not stated) | > 100 | > 100 | > 100 | > 100 | > 100 | > 100 | > 100 | > 100 |  |  |  |  |  |  |  |  |  |  | 
Cc1ccc(C)c(NC(=O)CCc2nc(=S)[nH][nH]2)c1 | > 100 | > 100 | > 100 | > 100 | > 100 | > 100 | > 100 | > 100 |  |  |  |  |  |  |  |  |  |  | 
O=C(NCCCCCCCCNC(=O)c1cccc2ccccc12)c1cccc2ccccc12 | > 100 | 13.2 | 13.5 | > 100 | 52.8 | 60.8 | > 100 | > 100 |  |  |  | > 100 |  |  |  |  |  |  | 
CCC(C(=O)[O-])C(=O)[O-].CCC(C(=O)[O-])C(=O)[O-].N.N.NCCCCCCN.[Pt+4].[Pt+4] | 20.6 | 20.4 | 50 | 5.12 | 4.97 | 13.4 | 13.8 | 18.7 | 10.1 | 20.4 µM |  |  |  | 2.25 | 6.77 | 5 | 7.99 | 9.85 | 2.37
COC12CC(=O)C(C(C)=O)=C(O)C1(C)c1c(OC(C)=O)c(C)c(O)c(C(C)=O)c1O2 (configuration not stated) | > 100 | 80.6 | 95.8 | > 100 | 54.1 | 99.2 | > 100 | > 100 |  |  |  |  |  |  |  |  |  |  | 
O=C(CC(=O)C1CCOC1=O)C(=O)Nc1ccc(Cl)cc1Cl (configuration not stated) | > 100 | > 100 | > 100 | > 100 | > 100 | > 100 | > 100 | > 100 |  |  |  |  |  |  |  |  |  |  | 
CCOC(=O)NC(=O)c1cn(CCN2CCN(C(=O)CCCCCCCCCCNc3ncnc4nc[nH]c34)CC2)c(=O)[nH]c1=O | > 100 | > 100 | > 100 | > 100 | > 100 | > 100 | > 100 | > 100 |  |  |  |  |  |  |  |  |  |  | 
CN(C)c1n/c(=N/c2ncn[nH]2)ss1 | > 100 | > 100 | > 100 | > 100 | > 100 | > 100 | > 100 | > 100 |  |  |  |  |  |  |  |  |  |  | 
